# Reference: PubChem BioAssay AID1963868 (Molecular Pharmacology Branch, DTP, NCI, 2024)
# “And” between values parts separate entries of the source, which are not always exact repeats. Identical values can stand only once.
# System: KRAS PDC tumor spheroids (HUVEC+MSC), viability
# Test: Anticancer human tumor 254851-301-R-J1-PDC patient-derived colon carcinoma cell line growth inhibition [KRAS2]
# Conditions: for viability, T/C: stronger effect = lower value
# Summary of the method: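 Combination screen of spheroid viability in tumor-cell co-cultures with endothelial (HUVEC) and mesenchymal stem cell stroma. Each agent was tested in half-log dilutions, topping at clinical Cmax or at 10 microM without a known Cmax.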
# [1] = curve of first compound, second compound 0.1 µM
# [2] = curve of first compound, second compound 0.316 µM
# [3] = curve of first compound, second compound 1 µM
# [4] = curve of first compound, second compound 3.16 µM
# [5] = curve of first compound, second compound 10 µM
# [6] = second compound 0.1 µM, first compound 0.000316 µM
# [7] = second compound 0.1 µM, first compound 0.001 µM
# [8] = second compound 0.1 µM, first compound 0.00316 µM
# [9] = second compound 0.1 µM, first compound 0.01 µM
# [10] = second compound 0.1 µM, first compound 0.0316 µM
# [11] = second compound 0.1 µM, first compound 0.1 µM
# [12] = second compound 0.316 µM, first compound 0.000316 µM
# [13] = second compound 0.316 µM, first compound 0.001 µM
# [14] = second compound 0.316 µM, first compound 0.00316 µM
# [15] = second compound 0.316 µM, first compound 0.01 µM
# [16] = second compound 0.316 µM, first compound 0.0316 µM
# [17] = second compound 0.316 µM, first compound 0.1 µM
# [18] = second compound 1 µM, first compound 0.000316 µM
# [19] = second compound 1 µM, first compound 0.001 µM
# [20] = second compound 1 µM, first compound 0.00316 µM
# [21] = second compound 1 µM, first compound 0.01 µM
# [22] = second compound 1 µM, first compound 0.0316 µM
# [23] = second compound 1 µM, first compound 0.1 µM
# [24] = second compound 3.16 µM, first compound 0.000316 µM
# [25] = second compound 3.16 µM, first compound 0.001 µM
# [26] = second compound 3.16 µM, first compound 0.00316 µM
# [27] = second compound 3.16 µM, first compound 0.01 µM
# [28] = second compound 3.16 µM, first compound 0.0316 µM
# [29] = second compound 3.16 µM, first compound 0.1 µM
# [30] = second compound 10 µM, first compound 0.0316 µM
# [31] = second compound 10 µM, first compound 0.1 µM
# [32] = curve of first compound, second compound 0.0316 µM
# [33] = second compound 0.0316 µM, first compound 0.01 µM
# [34] = second compound 0.0316 µM, first compound 0.0316 µM
# [35] = second compound 0.0316 µM, first compound 0.1 µM
# [36] = second compound 0.1 µM, first compound 0.316 µM
# [37] = second compound 0.1 µM, first compound 1 µM
# [38] = second compound 0.1 µM, first compound 3.16 µM
# [39] = second compound 0.316 µM, first compound 0.316 µM
# [40] = second compound 0.316 µM, first compound 1 µM
# [41] = second compound 0.316 µM, first compound 3.16 µM
# [42] = second compound 1 µM, first compound 0.316 µM
# [43] = second compound 1 µM, first compound 1 µM
# [44] = second compound 1 µM, first compound 3.16 µM
# [45] = second compound 3.16 µM, first compound 0.316 µM
# [46] = second compound 3.16 µM, first compound 1 µM
# [47] = second compound 3.16 µM, first compound 3.16 µM
# 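Note: spheroids exposed to compounds for seven days before readout.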
# 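Throughout, for viability, T/C: 100% = DMSO vehicle control luminescence of the spheroids.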
smiles,measurement,setting,value
CC(C)n1nc(-c2ccc3oc(N)nc3c2)c2c(N)ncnc21 + COc1cc2nc(C)nc(NC(C)c3cc(N)cc(C(F)(F)F)c3)c2cc1OC1CCOC1,IC50,[1],20.7 nM
same,IC50,[2],21.1 nM
same,IC50,[3],20.7 nM
same,IC50,[4],20.1 nM
same,IC50,[5],11.6 nM
same,"viability, T/C",[6],99%
same,"viability, T/C",[7],118%
same,"viability, T/C",[8],91.2%
same,"viability, T/C",[9],76.2%
same,"viability, T/C",[10],34.7%
same,"viability, T/C",[11],21.4%
same,"viability, T/C",[12],102%
same,"viability, T/C",[13],100%
same,"viability, T/C",[14],81.7%
same,"viability, T/C",[15],70.2%
same,"viability, T/C",[16],38.7%
same,"viability, T/C",[17],24%
same,"viability, T/C",[18],88.7%
same,"viability, T/C",[19],98.6%
same,"viability, T/C",[20],87.2%
same,"viability, T/C",[21],72.2%
same,"viability, T/C",[22],37%
same,"viability, T/C",[23],23.6%
same,"viability, T/C",[24],85.3%
same,"viability, T/C",[25],98.2%
same,"viability, T/C",[26],88.2%
same,"viability, T/C",[27],76.7%
same,"viability, T/C",[28],32.6%
same,"viability, T/C",[29],22.5%
same,"viability, T/C","second compound 10 µM, first compound 0.000316 µM",86.4%
same,"viability, T/C","second compound 10 µM, first compound 0.001 µM",97%
same,"viability, T/C","second compound 10 µM, first compound 0.00316 µM",73.7%
same,"viability, T/C","second compound 10 µM, first compound 0.01 µM",51.9%
same,"viability, T/C",[30],34.2%
same,"viability, T/C",[31],21%
CN(C)C/C=C/C(=O)Nc1cc2c(Nc3ccc(F)c(Cl)c3)ncnc2cc1O[C@H]1CCOC1 + C=CC(=O)N1CCN(c2nc(OCC3CCCN3C)nc3c2CCN(c2cccc4cccc(C)c24)C3)CC1CC#N,IC50,[32],> 100 nM
same,IC50,[1],> 100 nM
same,IC50,[2],> 100 nM
same,IC50,[3],> 100 nM
same,IC50,[4],> 100 nM
same,"viability, T/C","second compound 0.0316 µM, first compound 0.000316 µM",97.2%
same,"viability, T/C","second compound 0.0316 µM, first compound 0.001 µM",99.7%
same,"viability, T/C","second compound 0.0316 µM, first compound 0.00316 µM",94.7%
same,"viability, T/C",[33],96.7%
same,"viability, T/C",[34],97.9%
same,"viability, T/C",[35],78.7%
same,"viability, T/C",[6],105%
same,"viability, T/C",[7],101%
same,"viability, T/C",[8],88.5%
same,"viability, T/C",[9],92.6%
same,"viability, T/C",[10],97.7%
same,"viability, T/C",[11],69.7%
same,"viability, T/C",[12],101%
same,"viability, T/C",[13],97.8%
same,"viability, T/C",[14],92.6%
same,"viability, T/C",[15],75%
same,"viability, T/C",[16],89.3%
same,"viability, T/C",[17],74.5%
same,"viability, T/C",[18],104%
same,"viability, T/C",[19],97.9%
same,"viability, T/C",[20],91.4%
same,"viability, T/C",[21],95.9%
same,"viability, T/C",[22],96.7%
same,"viability, T/C",[23],82.3%
same,"viability, T/C",[24],67.5%
same,"viability, T/C",[25],61.5%
same,"viability, T/C",[26],51.8%
same,"viability, T/C",[27],54.6%
same,"viability, T/C",[28],62.6%
same,"viability, T/C",[29],52.1%
CC1COCCN1c1cc(-c2ccnn2C)c2ccnc(-c3ccn[nH]3)c2n1 (stereo unspecified),"viability, T/C",compound 0.01 µM,99.3% [middle of 5 runs]
same,"viability, T/C",compound 0.316 µM,47.7% [middle of 5 runs]
same,"viability, T/C",compound 1 µM,38.6% [middle of 5 runs]
same,"viability, T/C",compound 3.16 µM,24.1% [middle of 5 runs]
Cn1ncnc1[C@H]1c2n[nH]c(=O)c3cc(F)cc(c23)N[C@@H]1c1ccc(F)cc1,"viability, T/C",compound 0.000316 µM,102% [middle of 5 runs]
same,"viability, T/C",compound 0.001 µM,101% [middle of 5 runs]
same,"viability, T/C",compound 0.00316 µM,99.2% [middle of 5 runs]
same,"viability, T/C",compound 0.01 µM,98.7% [middle of 5 runs]
same,"viability, T/C",compound 0.0316 µM,101% [middle of 5 runs]
same,"viability, T/C",compound 0.1 µM,97.6% [middle of 5 runs]
same,IC50,curve of compound,> 100 nM
CCN1CCN(Cc2ccc(Nc3ncc(F)c(-c4cc(F)c5nc(C)n(C(C)C)c5c4)n3)nc2)CC1,"viability, T/C",compound 0.00316 µM,98.6% [middle of 5 runs]
same,"viability, T/C",compound 0.01 µM,101% [middle of 5 runs]
same,"viability, T/C",compound 0.0316 µM,90.3% [middle of 5 runs]
same,"viability, T/C",compound 0.1 µM,83.7% [middle of 5 runs]
same,"viability, T/C",compound 0.316 µM,69.6% [middle of 5 runs]
same,"viability, T/C",compound 1 µM,42% [middle of 5 runs]
CC1OCC2(CCN(c3cnc(Sc4ccnc(N)c4Cl)c(N)n3)CC2)C1N (stereo unspecified),"viability, T/C",compound 0.0316 µM,91.3% and 92.3% and 111%
same,"viability, T/C",compound 0.1 µM,96.8% [middle of 19 runs]
same,"viability, T/C",compound 1 µM,82.1% [middle of 19 runs]
same,IC50,"compound alone, run of 07/12/2021",> 10000 nM
same,IC50,"compound alone, run of 07/19/2021",> 10000 nM
same,IC50,"compound alone, run of 07/26/2021",> 10000 nM and 3880 nM
same,IC50,curve of compound,> 10000 nM
COc1cc2nccc(Oc3ccc(NC(=O)C4(C(=O)Nc5ccc(F)cc5)CC4)cc3)c2cc1OC + CNCc1ccccc1-c1csc(C(C)Nc2nc(C)nc3cc(OC)c(OC)cc23)c1,IC50,[1],9900 nM
same,IC50,[2],7280 nM
same,IC50,[3],6420 nM
same,IC50,[4],1630 nM
same,IC50,[5],< 31.6 nM
same,"viability, T/C",[10],102%
same,"viability, T/C",[11],104%
same,"viability, T/C",[36],97.2%
same,"viability, T/C",[37],103%
same,"viability, T/C",[38],101%
same,"viability, T/C","second compound 0.1 µM, first compound 10 µM",49.6%
same,"viability, T/C",[16],112%
same,"viability, T/C",[17],91.5%
same,"viability, T/C",[39],96.3%
same,"viability, T/C",[40],101%
same,"viability, T/C",[41],85.5%
same,"viability, T/C","second compound 0.316 µM, first compound 10 µM",36.3%
same,"viability, T/C",[22],107%
same,"viability, T/C",[23],102%
same,"viability, T/C",[42],100%
same,"viability, T/C",[43],99.7%
same,"viability, T/C",[44],82.7%
same,"viability, T/C","second compound 1 µM, first compound 10 µM",29.3%
same,"viability, T/C",[28],82%
same,"viability, T/C",[29],78%
same,"viability, T/C",[45],72.4%
same,"viability, T/C",[46],64.4%
same,"viability, T/C",[47],32.5%
same,"viability, T/C","second compound 3.16 µM, first compound 10 µM",0.27%
same,"viability, T/C",[30],0.19%
same,"viability, T/C",[31],0.17%
same,"viability, T/C","second compound 10 µM, first compound 0.316 µM",0.16%
same,"viability, T/C","second compound 10 µM, first compound 1 µM",0.18%
same,"viability, T/C","second compound 10 µM, first compound 3.16 µM",0.13%
same,"viability, T/C","second compound 10 µM, first compound 10 µM",0.17%
CN(C)C/C=C/C(=O)Nc1cc2c(Nc3ccc(F)c(Cl)c3)ncnc2cc1O[C@H]1CCOC1,"viability, T/C",compound 0.000316 µM,104% [middle of 5 runs]
same,"viability, T/C",compound 0.001 µM,108% [middle of 5 runs]
same,"viability, T/C",compound 0.00316 µM,104% [middle of 5 runs]
same,"viability, T/C",compound 0.01 µM,96.8% [middle of 5 runs]
same,"viability, T/C",compound 0.0316 µM,97.6% [middle of 5 runs]
same,"viability, T/C",compound 0.1 µM,81.5% [middle of 5 runs]
same,IC50,curve of compound,> 100 nM
CC1COCCN1c1cc(-c2ccnn2C)c2ccnc(-c3ccn[nH]3)c2n1 (stereo unspecified) + C=CC(=O)N1CCN(c2nc(OCC3CCCN3C)nc3c2CCN(c2cccc4cccc(C)c24)C3)CC1CC#N,IC50,[32],207 nM
same,IC50,[1],300 nM
same,IC50,[2],187 nM
same,IC50,[3],82.6 nM
same,IC50,[4],23.8 nM
same,"viability, T/C",[33],122%
same,"viability, T/C",[34],88.8%
same,"viability, T/C",[35],62.7%
same,"viability, T/C","second compound 0.0316 µM, first compound 0.316 µM",40.4%
same,"viability, T/C","second compound 0.0316 µM, first compound 1 µM",32.7%
same,"viability, T/C","second compound 0.0316 µM, first compound 3.16 µM",20.4%
same,"viability, T/C",[9],101%
same,"viability, T/C",[10],95.3%
same,"viability, T/C",[11],64.8%
same,"viability, T/C",[36],50.8%
same,"viability, T/C",[37],34%
same,"viability, T/C",[38],21.4%
same,"viability, T/C",[15],105%
same,"viability, T/C",[16],97.1%
same,"viability, T/C",[17],58.8%
same,"viability, T/C",[39],41.9%
same,"viability, T/C",[40],32.3%
same,"viability, T/C",[41],22.5%
same,"viability, T/C",[21],59.4%
same,"viability, T/C",[22],53%
same,"viability, T/C",[23],48.8%
same,"viability, T/C",[42],26.3%
same,"viability, T/C",[43],26.5%
same,"viability, T/C",[44],39.7%
same,"viability, T/C",[27],57.6%
same,"viability, T/C",[28],47.1%
same,"viability, T/C",[29],32.8%
same,"viability, T/C",[45],23.3%
same,"viability, T/C",[46],18.8%
same,"viability, T/C",[47],23.8%
